Data from publication PMC3408433, “Selective Cytotoxicity of Amidinopiperidine Based Compounds Towards Burkitt’s Lymphoma Cells Involves Proteasome Inhibition” (PLoS ONE, 2012).

Assays:
[1] = system: Ramos Burkitt’s lymphoma cells; experiment: Metabolic activity assay (MTS), Ramos; type: cell-based, human; details: 24 h; for residual metabolic activity relative to control: 50 µM; for cytotoxicity group (Figure 3A) / viability at 100 µM: 100 µM; for viability at 100 µM: Homo sapiens, read-out: residual metabolic activity relative to untreated control
Method: When investigating the potency of selected serine protease inhibitors to induce cell death in human B lymphoma cells, we identified a set of compounds cytotoxic for Burkitt’s lymphoma. Using a metabolic activity assay (MTS), we evaluated the proliferation rate of Ramos Burkitt’s lymphoma cells, in the presence of serine protease inhibitors. Cells were treated for 24 h with the compound of interest at concentrations of 100 µM (1–13, 15, 16) or 50 µM (14). After a comparison of metabolic activity relative to that in the untreated control, three groups with distinct modes of action were determined (Figure 3A). […] The second group (compounds 1–3, 5, 7 and 13) caused a moderate decrease (50% to 80%) relative to untreated cells. The last group of compounds (11, 15, 16) severely impaired the metabolic activity, such that it fell to under 6%.
(§1) Cells (1×10^5 cells/mL for Ramos, Daudi, U937 and Jurkat, and 1×10^6 cells/mL for PBMC) were treated with the appropriate amounts of compounds of interest or corresponding vehicle (control cells), then seeded in triplicate in 96 well plates. The metabolic activity was assessed using the CellTiter 96® Aqueous One Solution Cell Proliferation Assay (Promega, Madison/WI, USA), in accordance with the manufacturer’s instructions.

[2] = system: peripheral blood mononuclear cells (PBMC); experiment: Metabolic activity assay (MTS), PBMC; type: cell-based, human; details: 50 µM, 24 h
Method: (§2) Compounds 11, and 14–16 were further tested for selective cytotoxicity. The experiments were conducted on freshly isolated primary peripheral blood mononuclear cells (PBMC) and three other haematological cancers: human T cell leukaemia (Jurkat), human histiocytic lymphoma (U937) and human Burkitt’s lymphoma (Daudi). An MTS assay was performed following 24 h of treatment with the compound of interest at 50 µM. […] The inhibition of proliferation in Ramos cells, mediated with compounds 15 and 16, was concentration dependent.
as §1

[3] = system: human T cell leukaemia (Jurkat); experiment: Metabolic activity assay (MTS), Jurkat; type: cell-based; details: 50 µM, 24 h
Method: as §2, §1

[4] = system: ubiquitinated proteins in Ramos cells; experiment: Western blot analysis of ubiquitinated proteins; type: cell-based, human; details: 6 h treatment
Method: (§3) Ramos cells were seeded in 6-well culture plates at a concentration of 1×10^6 cells/mL and treated with the compound of interest or corresponding vehicle for 1 h, 2 h or 6 h. After the indicated time points, cells were harvested, washed in ice-cold PBS and lysed in modified RIPA buffer (50 mM Tris-HCl, pH 7.4, 150 mM NaCl, 1% NP−40, 0.25% Na-deoxycholate, 1 mM EDTA, 1 µg/mL aprotinin, 1 mM PMSF and 1× Halt Phosphatase inhibitor cocktail (Thermo Scientific, Pierce Biotechnology, IL, USA)). The lysates were sonicated, rocked on ice for 30 min and centrifuged at 13,000 rpm at 4°C for 15 min. Protein samples were electrophoresed in SDS-polyacrylamide gels and then transferred to nitrocellulose membranes. The primary antibodies used were against ubiquitin, phospho-IκBα, IκBα, p65 and caspase-3 (Cell Signaling, Danvers/MA, USA), and p105/p50 (Santa Cruz Biotechnology, Inc., Santa Cruz/CA, USA), and ß-actin (Sigma-Aldrich). Following incubation with the primary antibody, membranes were washed six times and incubated for 1 h at room temperature with the corresponding dilution of the appropriate secondary antibody conjugated with horseradish peroxidase (Upstate, Temecula, CA, USA). The immunoreactivity of respective proteins of interest was determined by chemiluminescence using the SuperSignal West Femto substrate (Pierce, IL, USA), in accordance with the manufacturer's instructions. […]

[5] = biological target: T1, chymotrypsin-like activity of human 20S proteasome (Homo sapiens, UniProt P28074); experiment: Proteasome activity measurement, chymotrypsin-like; type: biochemical; details: purified human 20S proteasome, Suc-Leu-Leu-Val-Tyr-AMC, uncompetitive
T1 construct: purchased Boston Biochem, Inc
Method: Suc-Leu-Leu-Val-Tyr-AMC, Bz-Val-Gly-Arg-AMC and Z-Leu-Leu-Glu-AMC (Bachem, Bubendorf, Switzerland) were used for the chymotrypsin-like, trypsin-like and caspase-like activites, respectively. Assay buffer consisted of TE buffer (20 mM Tris (pH = 8.0), 0.5 mM EDTA, 0.03% SDS). Substrate hydrolysis was continuously monitored at 37°C with an automated microplate reader (Tecan Safire^2). Measured fluorescence values (RFU) were plotted versus time with nonlinear regression to fit a Michaelis-Menten plot.
For the Ki determination, 25 µL of substrate at three concentrations and 25 µL of inhibitor of interest also at three different concentrations were added to the wells of a white microplate. The reaction was initiated with 50 µL of the enzyme in the assay buffer. Flourescence of the AMC release was continuously monitored at 420 nm with 320 nm excitation.
Km and Ki were calculated using SigmaPlot 11 (Enzyme Kinetics Module 1.3) and are presented as the mean of three independent experiments.

[6] = biological target: T2, 20S proteasome (Homo sapiens, UniProt P28072+P28074+Q99436); experiment: Rapid dilution assay (reversibility); type: biochemical
T2 construct: purchased Boston Biochem, Inc
Method: The enzyme-inhibitor complex was diluted 100-fold with the substrate of interest to a final volume of 200 µL, initiating the reaction. In the case of reversibility of the inhibitor the residual enzyme activity was expected to be around 90%.

[7] = biological target: Trypsin; parameters: method as in PMID 15497744, PMID 15544050, PMID 17484277; details: amidolytic assay, chromogenic substrate; determined previously; cited from earlier work
[8] = system: Ramos Burkitt’s lymphoma cells; experiment: Metabolic activity assay (MTS), Ramos; type: cell-based; details: Homo sapiens, 24 h, read-out: IC50, inhibition of proliferation (metabolic activity)
[9] = system: p105 and IκBα in Ramos cells; experiment: Western blot analysis of phospho-p105, p105, phospho-IκB and IκB; type: cell-based, human; details: total level of both molecules remained the same
Method: as §3

[10] = system: p65 and p50 translocation in Ramos cells; experiment: Subcellular fractionation and Western blot of p65 and p50; type: cell-based, human; details: 50 µM
Method: as §3

N=C(N)N1CCC(CN(NS(=O)(=O)c2ccc3ccccc3c2)C(=O)N2CCCCCC2)CC1 [Compound 16]
residual metabolic activity relative to control [1]: severe and selective decrease
cytotoxicity group (Figure 3A) [1]: severely cytotoxic (severely impaired the metabolic activity, such that it fell to under 6%)
viability at 100 µM [1]: < 6%
residual metabolic activity relative to control [2]: no or only moderate decreases
residual metabolic activity relative to control [3]: no or only moderate decreases
polyubiquitinated proteins [4]: increased amount of polyubiquitinated proteins
Ki ' chymotrypsin-like activity [5]: Ki ' = 37±13 µM
reversibility of proteasome inhibition [6]: reversibly inhibit
Ki [7]: 66 µM
IC50 [8]: 22 µM

N=C(N)N1CCC(CN(NS(=O)(=O)c2ccc3ccccc3c2)C(=O)N2CCCCC2)CC1 [Compound 15]
residual metabolic activity relative to control [1]: severe and selective decrease
cytotoxicity group (Figure 3A) [1]: severely cytotoxic (severely impaired the metabolic activity, such that it fell to under 6%)
viability at 100 µM [1]: < 6%
residual metabolic activity relative to control [2]: no or only moderate decreases
residual metabolic activity relative to control [3]: no or only moderate decreases
levels of p105 and IκBα (phosphorylated forms) [9]: accumulation of the phosphorylated forms of p105 and IκBα
translocation of p65 and p50 from the cytoplasm into the nucleus [10]: no translocation of p65 and p50
Ki ' chymotrypsin-like activity [5]: Ki ' = 84±15 µM
reversibility of proteasome inhibition [6]: reversibly inhibit
Ki [7]: 39 µM
IC50 [8]: 18 µM
